Laboratory results as given in US20030087906A1, “NITROGEN SUBSTITUTED BIARYL PURINE DERIVATIVES AS POTENT ANTIPROLIFERATIVE AGENTS” (priority 2001, published 2003).

Tests used:
MOLT-4 = assay: NCI 60-cell line growth inhibition assay; assay type: cell-based; conditions: Homo sapiens; Leukemia, MOLT-4
[1] = MTD (NCI in vivo evaluation, Table 8); conditions: mouse
U251 = assay: NCI 60-cell line growth inhibition assay; assay type: cell-based; conditions: Homo sapiens, U-251; CNS, U251
MDA-MB-435 = assay: NCI 60-cell line growth inhibition assay; assay type: cell-based; conditions: Homo sapiens; Breast, MDA-MB-435
MCF7 = assay: NCI 60-cell line growth inhibition assay; assay type: cell-based; conditions: Homo sapiens; Breast, MCF7
RXF 393 = assay: NCI 60-cell line growth inhibition assay; assay type: cell-based; conditions: Homo sapiens; Renal, RXF 393
IGROV1 = assay: NCI 60-cell line growth inhibition assay; assay type: cell-based; conditions: Homo sapiens, IGROV-1; Ovarian, IGROV1
TK-10 = assay: NCI 60-cell line growth inhibition assay; assay type: cell-based; conditions: Homo sapiens; Renal, TK-10
SK-OV-3 = assay: NCI 60-cell line growth inhibition assay; assay type: cell-based; conditions: Homo sapiens; Ovarian, SK-OV-3
UACC-257 = assay: NCI 60-cell line growth inhibition assay; assay type: cell-based; conditions: Homo sapiens; Melanoma, UACC-257
OVCAR-5 = assay: NCI 60-cell line growth inhibition assay; assay type: cell-based; conditions: Homo sapiens; Ovarian, OVCAR-5
LOX IMVI = assay: NCI 60-cell line growth inhibition assay; assay type: cell-based; conditions: Homo sapiens; Melanoma, LOX IMVI
HCC-2998 = assay: NCI 60-cell line growth inhibition assay; assay type: cell-based; conditions: Homo sapiens; Colon, HCC-2998
SNB-19 = assay: NCI 60-cell line growth inhibition assay; assay type: cell-based; conditions: Homo sapiens; CNS, SNB-19
HeLa S-3 cells = assay: Inhibition of cell growth of HeLa cells (SRB); assay type: cell-based, human; conditions: Homo sapiens, HeLa S3, 48 h, 2 days of treatment, replicate experiments
CAKI-1 = assay: NCI 60-cell line growth inhibition assay; assay type: cell-based; conditions: Homo sapiens; Renal, CAKI-1
MDA-MB-231/ATCC = assay: NCI 60-cell line growth inhibition assay; assay type: cell-based; conditions: Homo sapiens; Breast, MDA-MB-231/ATCC
HCT-15 = assay: NCI 60-cell line growth inhibition assay; assay type: cell-based; conditions: Homo sapiens; Colon, HCT-15
SK-MEL-28 = assay: NCI 60-cell line growth inhibition assay; assay type: cell-based; conditions: Homo sapiens; Melanoma, SK-MEL-28
SW-620 = assay: NCI 60-cell line growth inhibition assay; assay type: cell-based; conditions: Homo sapiens; Colon, SW-620
HT29 = assay: NCI 60-cell line growth inhibition assay; assay type: cell-based; conditions: Homo sapiens, HT-29; Colon, HT29
K-562 = assay: NCI 60-cell line growth inhibition assay; assay type: cell-based; conditions: Homo sapiens, K562; Leukemia, K-562
NCI-H460 = assay: NCI 60-cell line growth inhibition assay; assay type: cell-based; conditions: Homo sapiens; Non-Small Cell Lung, NCI-H460
ACHN = assay: NCI 60-cell line growth inhibition assay; assay type: cell-based; conditions: Homo sapiens; Renal, ACHN
OVCAR-3 = assay: NCI 60-cell line growth inhibition assay; assay type: cell-based; conditions: Homo sapiens; Ovarian, OVCAR-3
M14 = assay: NCI 60-cell line growth inhibition assay; assay type: cell-based; conditions: Homo sapiens; Melanoma, M14
SF-268 = assay: NCI 60-cell line growth inhibition assay; assay type: cell-based; conditions: Homo sapiens; CNS, SF-268
T-47D = assay: NCI 60-cell line growth inhibition assay; assay type: cell-based; conditions: Homo sapiens, T47D; Breast, T-47D
[2] = test system: Tumor Cells in Hollow Fibers; assay: NCI Hollow Fiber Assay (in vivo evaluation); conditions: for IP Score: IP fibers; for SC score: SC fibers
HL-60(TB) = assay: NCI 60-cell line growth inhibition assay; assay type: cell-based; conditions: Homo sapiens; Leukemia, HL-60(TB)
EKVX = assay: NCI 60-cell line growth inhibition assay; assay type: cell-based; conditions: Homo sapiens; Non-Small Cell Lung, EKVX
KM12 = assay: NCI 60-cell line growth inhibition assay; assay type: cell-based; conditions: Homo sapiens; Colon, KM12
PC-3 = assay: NCI 60-cell line growth inhibition assay; assay type: cell-based; conditions: Homo sapiens; Prostate, PC-3
NCI-H322M = assay: NCI 60-cell line growth inhibition assay; assay type: cell-based; conditions: Homo sapiens; Non-Small Cell Lung, NCI-H322M
COLO 205 = assay: NCI 60-cell line growth inhibition assay; assay type: cell-based; conditions: Homo sapiens; Colon, COLO 205
OVCAR-8 = assay: NCI 60-cell line growth inhibition assay; assay type: cell-based; conditions: Homo sapiens; Ovarian, OVCAR-8
UACC-62 = assay: NCI 60-cell line growth inhibition assay; assay type: cell-based; conditions: Homo sapiens; Melanoma, UACC-62
SF-295 = assay: NCI 60-cell line growth inhibition assay; assay type: cell-based; conditions: Homo sapiens; CNS, SF-295
MALME-3M = assay: NCI 60-cell line growth inhibition assay; assay type: cell-based; conditions: Homo sapiens; Melanoma, MALME-3M
A549/ATCC = assay: NCI 60-cell line growth inhibition assay; assay type: cell-based; conditions: Homo sapiens; Non-Small Cell Lung, A549/ATCC
SK-MEL-2 = assay: NCI 60-cell line growth inhibition assay; assay type: cell-based; conditions: Homo sapiens; Melanoma, SK-MEL-2
CCRF-CEM = assay: NCI 60-cell line growth inhibition assay; assay type: cell-based; conditions: Homo sapiens; Leukemia, CCRF-CEM
SR = assay: NCI 60-cell line growth inhibition assay; assay type: cell-based; conditions: Homo sapiens; Leukemia, SR
UO-31 = assay: NCI 60-cell line growth inhibition assay; assay type: cell-based; conditions: Homo sapiens; Renal, UO-31
CyclinA/cdk2 = CyclinA/cdk2 (Homo sapiens, UniProt P24941); assay: CyclinA/cdk2 protein kinase assay (histone H1 phosphorylation); conditions: IC50 CyclinA/cdk2, complex immunopurified from HeLa cells; 15 μM ATP; replicate experiments
CyclinE/cdk2 = CyclinE/cdk2 (Homo sapiens, UniProt P24941); assay: CyclinE/cdk2 protein kinase assay (histone H1 phosphorylation); conditions: IC50 CyclinE/cdk2, complex immunopurified from HeLa cells; 15 μM ATP; replicate experiments
RPMI-8226 = assay: NCI 60-cell line growth inhibition assay; assay type: cell-based; conditions: Homo sapiens; Leukemia, RPMI-8226
NCI/ADR-RES = assay: NCI 60-cell line growth inhibition assay; assay type: cell-based; conditions: Homo sapiens; Breast, NCI/ADR-RES
HCT-116 = assay: NCI 60-cell line growth inhibition assay; assay type: cell-based; conditions: Homo sapiens; Colon, HCT-116
NCI-H23 = assay: NCI 60-cell line growth inhibition assay; assay type: cell-based; conditions: Homo sapiens; Non-Small Cell Lung, NCI-H23
NCI-H522 = assay: NCI 60-cell line growth inhibition assay; assay type: cell-based; conditions: Homo sapiens; Non-Small Cell Lung, NCI-H522
SF-539 = assay: NCI 60-cell line growth inhibition assay; assay type: cell-based; conditions: Homo sapiens; CNS, SF-539
BT-549 = assay: NCI 60-cell line growth inhibition assay; assay type: cell-based; conditions: Homo sapiens; Breast, BT-549
786-0 = assay: NCI 60-cell line growth inhibition assay; assay type: cell-based; conditions: Homo sapiens; Renal, 786-0
HOP-62 = assay: NCI 60-cell line growth inhibition assay; assay type: cell-based; conditions: Homo sapiens; Non-Small Cell Lung, HOP-62
DU-145 = assay: NCI 60-cell line growth inhibition assay; assay type: cell-based; conditions: Homo sapiens; Prostate, DU-145
OVCAR-4 = assay: NCI 60-cell line growth inhibition assay; assay type: cell-based; conditions: Homo sapiens; Ovarian, OVCAR-4
SK-MEL-5 = assay: NCI 60-cell line growth inhibition assay; assay type: cell-based; conditions: Homo sapiens; Melanoma, SK-MEL-5

With `CC[C@H](CO)Nc1nc(NCc2ccc(-c3cccc(C(F)(F)F)c3)cc2)c2ncn(C(C)C)c2n1` [Compound 38] the GI50 (MOLT-4) was 0.25 µM, the MTD [1] was 100 mg/kg and the GI50 (U251) was 0.2 µM. The GI50 (MDA-MB-435) was 0.05 µM, the GI50 (MCF7) was 0.2 µM and the GI50 (RXF 393) was 0.13 µM. For the same compound, the GI50 (IGROV1) was 0.16 µM, the GI50 (TK-10) was 0.4 µM and the GI50 (SK-OV-3) was 3.98 µM. For the same compound, the GI50 (UACC-257) was 0.5 µM, the GI50 (OVCAR-5) was 0.4 µM and the GI50 (LOX IMVI) was 0.4 µM. It also gave a GI50 (HCC-2998) of 7.94 µM, a GI50 (SNB-19) of 0.5 µM and a GI50 (HeLa S-3 cells) of 0.6 µM. The GI50 (CAKI-1) was 0.2 µM, the GI50 (MDA-MB-231/ATCC) was 0.06 µM and the GI50 (HCT-15) was 0.25 µM. The GI50 (SK-MEL-28) was 0.03 µM, the GI50 (SW-620) was 0.03 µM and the GI50 (HT29) was 0.25 µM. For the same compound, the GI50 (K-562) was 0.25 µM, the GI50 (NCI-H460) was 3.16 µM and the GI50 (ACHN) was 2 µM. The GI50 (OVCAR-3) was 1 µM, the GI50 (M14) was 0.05 µM and the GI50 (SF-268) was 0.2 µM. For the same compound, the GI50 (T-47D) was 0.25 µM, the “IP Score” value [2] was 0 and the SC score [2] was 4. It also gave a GI50 (HL-60(TB)) of 0.04 µM, a GI50 (EKVX) of 0.2 µM and a GI50 (KM12) of 0.16 µM. The GI50 (PC-3) was 0.4 µM, the GI50 (NCI-H322M) was 0.4 µM and the GI50 (COLO 205) was 0.16 µM. It also gave a GI50 (OVCAR-8) of 0.25 µM, a GI50 (UACC-62) of 1 µM and a GI50 (SF-295) of 0.5 µM. For the same compound, the GI50 (MALME-3M) was 0.25 µM, the GI50 (A549/ATCC) was 0.13 µM and the GI50 (SK-MEL-2) was 2 µM. For the same compound, the GI50 (CCRF-CEM) was 0.2 µM, the GI50 (SR) was 3.98 µM and the GI50 (UO-31) was 0.13 µM.

`CC(=O)N[C@H]1CC[C@H](Nc2nc(NCc3ccc(-c4ccsc4)cc3)c3ncn(C(C)C)c3n2)CC1` [Compound 113] showed an MTD [1] of 200 mg/kg, an IC50 (CyclinA/cdk2) of 0.4 µM and an IC50 (CyclinE/cdk2) of 0.3 µM. The “Cell Types Killed” value [2] was “OVCAR-3”, the “IP Score” value [2] was 18 and the SC score [2] was 4.

For `C=Cc1ccc(-c2ccc(CNc3nc(N[C@H](CC)CO)nc4c3ncn4C(C)C)cc2)cc1` [Compound 33], the GI50 (RPMI-8226) was 1.5 µM, the GI50 (MOLT-4) was 3.8 µM and the GI50 (U251) was 3.7 µM. For the same compound, the GI50 (MDA-MB-435) was 4.9 µM, the GI50 (MCF7) was 5.2 µM and the GI50 (NCI/ADR-RES) was 6.3 µM. The GI50 (HCT-116) was 6.2 µM, the GI50 (IGROV1) was 10 µM and the GI50 (NCI-H23) was 26.3 µM. It also gave a GI50 (NCI-H522) of 4.2 µM, a GI50 (TK-10) of 8.3 µM and a GI50 (SK-OV-3) greater than 1000 µM. It also gave a GI50 (UACC-257) of 75.9 µM, a GI50 (OVCAR-5) greater than 1000 µM and a GI50 (SF-539) of 89.1 µM. The GI50 (BT-549) was 51.3 µM, the GI50 (LOX IMVI) was 16.6 µM and the GI50 (HCC-2998) was greater than 1000 µM. For the same compound, the GI50 (SNB-19) was 38 µM, the GI50 (CAKI-1) was 4.4 µM and the GI50 (786-0) was 18.6 µM. For the same compound, the GI50 (HCT-15) was 8.9 µM, the GI50 (SK-MEL-28) was 5.9 µM and the GI50 (SW-620) was 2.9 µM. It also gave a GI50 (HT29) of 8.9 µM, a GI50 (K-562) of 3.1 µM and a GI50 (NCI-H460) of 25.7 µM. The GI50 (ACHN) was 5.2 µM, the GI50 (OVCAR-3) was greater than 1000 µM and the GI50 (HOP-62) was greater than 1000 µM. The GI50 (M14) was 7.8 µM, the GI50 (SF-268) was 6.3 µM and the GI50 (T-47D) was 3.9 µM. It also gave a GI50 (HL-60(TB)) of 3.2 µM, a GI50 (EKVX) of 6.9 µM and a GI50 (KM12) of 4.1 µM. It also gave a GI50 (PC-3) greater than 1000 µM, a GI50 (NCI-H322M) of 38.9 µM and a GI50 (COLO 205) of 7.8 µM. The GI50 (OVCAR-8) was 6.6 µM, the GI50 (UACC-62) was 8.3 µM and the GI50 (DU-145) was 17.8 µM. It also gave a GI50 (OVCAR-4) of 31.6 µM, a GI50 (SK-MEL-5) of 16.2 µM and a GI50 (SF-295) of 7.8 µM. It also gave a GI50 (MALME-3M) of 11.7 µM, a GI50 (A549/ATCC) of 4.6 µM and a GI50 (SK-MEL-2) greater than 1000 µM. The GI50 (CCRF-CEM) was 4.6 µM, the GI50 (SR) was 4.5 µM and the GI50 (UO-31) was 8.1 µM.
